In brackets after ≈: the same amount, converted by molar mass.

Format in all cases: cell-based
Experiment [1] has as its system Akkermansia muciniphila ATCC BAA-835. Briefly: Utilization of carbohydrates, API50CH kit (type strain). The procedure: (§1) In order to examine the utilization of carbohydrates by the isolated Akkermansia muciniphila strain of the present invention, the strain was cultured using an API50CH kit (Biomerieux, France), and then whether the strain would grow using each carbohydrate was compared with the type strain (ATCC BAA-835).

For experiment [2], the system named is Akkermansia muciniphila EB-AMDK27 strain. Briefly: Utilization of carbohydrates, API50CH kit (isolated strain). The procedure: as §1
For experiment [3] the test system is unchanged. Briefly: Antimicrobial susceptibility, MIC by broth microdilution (CLSI). Particulars: EBAMDK27STRAIN, read-out: MIC, Test strain EB-AMDK27.
The test system of experiment [4] is Bacteroides thetiotaomicron ATCC 29741. Briefly: Antimicrobial susceptibility, MIC by broth microdilution (CLSI), QC strain. Particulars: for MIC: Bacteroides, ATCC29741, read-out: MIC, QC ATCC 29741. Details: MIC, QC ATCC 29741: unit not given beside the values. On the technique in general: Dilution methods test growth across graded concentrations, often in twofold steps.

Take `N#C[C@H](O[C@@H]1O[C@H](CO[C@@H]2O[C@H](CO)[C@@H](O)[C@H](O)[C@H]2O)[C@@H](O)[C@H](O)[C@H]1O)c1ccccc1` [Amygdaline]: the “growth using each carbohydrate, ATCC BAA-835” value (from here on “growth … ATCC BAA-835”) in experiment [1] is listed as “−”. The “growth using each carbohydrate, EB-AMDK27” value (“growth … EB-AMDK27” below) in experiment [2] is reported as “−”.
For the compound `OC[C@H]1O[C@@H](Oc2ccc(O)cc2)[C@H](O)[C@@H](O)[C@@H]1O` [Arbutine], in experiment [1], the “growth … ATCC BAA-835” value is “−”. Also, the “growth … EB-AMDK27” value in experiment [2] is on record as “−”.
The term MIC denotes the lowest concentration found to suppress growth. Regarding `O=C(N[C@H](CO)[C@H](O)c1ccc([N+](=O)[O-])cc1)C(Cl)Cl` [CHL, Chloramphenicol], the MIC in experiment [3] was 4 µg/mL (≈ 12.4 µM); in experiment [4] it was 8 µg/mL (≈ 24.8 µM).
Take `CCC[C@@H]1C[C@@H](C(=O)N[C@@H]([C@H]2O[C@H](SC)[C@H](O)[C@@H](O)[C@H]2O)[C@H](C)Cl)N(C)C1` [CLI, Clindamycin]: the MIC in experiment [3] was at most 0.125 µg/mL.
On to `CO/N=C(\C(=O)N[C@@H]1C(=O)N2C(C(=O)O)=CCS[C@H]12)c1csc(N)n1` [CTZ, Ceftizoxime], for which the MIC in experiment [3] turned out to be 2 µg/mL (≈ 5.22 µM); in experiment [4] it was 16 µg/mL (≈ 41.7 µM).
For the compound `OC[C@@H](O)C(O)[C@H](O)CO` [D-Arabitol], the “growth … ATCC BAA-835” value in experiment [1] is given as “−”. Further, the “growth … EB-AMDK27” value in experiment [2] was “−”.
Regarding `OC[C@H]1O[C@@H](O[C@H]2[C@H](O)[C@@H](O)[C@H](O)O[C@@H]2CO)[C@H](O)[C@@H](O)[C@@H]1O` [D-Cellobiose], the “growth … ATCC BAA-835” value in experiment [1] is given as “−”. The “growth … EB-AMDK27” value in experiment [2] was “−”.
As to `OC[C@H]1O[C@H](O[C@H]2[C@H](O)[C@@H](O)[C@H](O)O[C@@H]2CO)[C@H](O)[C@@H](O)[C@@H]1O` [D-Maltose], the “growth … ATCC BAA-835” value in experiment [1] is “−”. Moreover, the “growth … EB-AMDK27” value in experiment [2] is recorded as “−”.
Consider `OC[C@H]1O[C@@](CO)(O[C@H]2O[C@H](CO)[C@@H](O)[C@H](O)[C@H]2O)[C@@H](O[C@H]2O[C@H](CO)[C@@H](O)[C@H](O)[C@H]2O)[C@@H]1O` [D-Melezitose], for which the “growth … ATCC BAA-835” value in experiment [1] is listed as “−”. Also, the “growth … EB-AMDK27” value in experiment [2] is “−”.
Regarding `OC[C@H]1O[C@H](OCC2O[C@@H](O)[C@H](O)[C@@H](O)[C@@H]2O)[C@H](O)[C@@H](O)[C@H]1O` (stereo partly drawn) [D-Melibiose], the “growth … ATCC BAA-835” value in experiment [1] is reported as “−”. Also, in experiment [2], the “growth … EB-AMDK27” value was “−”.
As to `OC[C@H]1O[C@H](OC[C@H]2O[C@H](O[C@]3(CO)O[C@H](CO)[C@@H](O)[C@@H]3O)[C@H](O)[C@@H](O)[C@@H]2O)[C@H](O)[C@@H](O)[C@H]1O` [D-Raffinose], in experiment [1], the “growth … ATCC BAA-835” value is listed as “−”. Further, the “growth … EB-AMDK27” value in experiment [2] is listed as “−”.
`OC[C@H]1O[C@@](CO)(O[C@H]2O[C@H](CO)[C@@H](O)[C@H](O)[C@H]2O)[C@@H](O)[C@@H]1O` [D-Saccharose (sucrose), D-Saccharose]: the “growth … ATCC BAA-835” value in experiment [1] is listed as “−”. In experiment [2], the “growth … EB-AMDK27” value was “−”.
Turning to `OC[C@H]1O[C@H](O[C@H]2O[C@H](CO)[C@@H](O)[C@H](O)[C@H]2O)[C@H](O)[C@@H](O)[C@@H]1O` [D-Trehalose], the “growth … ATCC BAA-835” value in experiment [1] is “−”. For the same compound, the “growth … EB-AMDK27” value in experiment [2] was “−”.
On to `OC[C@@H](O)[C@H](O)[C@H](O)[C@@H](O)CO` [Dulcitol], for which the “growth … ATCC BAA-835” value in experiment [1] is listed as “−”. Moreover, the “growth … EB-AMDK27” value in experiment [2] is on record as “−”.
In the case of `O=c1ccc2cc(O[C@@H]3O[C@H](CO)[C@@H](O)[C@H](O)[C@H]3O)c(O)cc2o1` [Esculine], the “growth … ATCC BAA-835” value in experiment [1] was “−”. The “growth … EB-AMDK27” value in experiment [2] is on record as “−”.
As for `CCN1C[C@]2(COC(=O)c3ccccc3N)CC[C@H](OC)[C@]34C5C[C@@H]6[C@@H](OC)C[C@@](O)(C5[C@H]6OC)[C@@](O)(C13)[C@@H](OC)C24` (some centres unmarked) [Inuline], the “growth … ATCC BAA-835” value in experiment [1] was “−”. The “growth … EB-AMDK27” value in experiment [2] is recorded as “−”.
As to `OC[C@H](O)C(O)[C@@H](O)CO` [L-Arabitol], the “growth … ATCC BAA-835” value in experiment [1] was “−”. The “growth … EB-AMDK27” value in experiment [2] is “−”.
Turning to `C[C@@H](O)[C@H]1C(=O)N2C(C(=O)O)=C(S[C@@H]3CN[C@H](C(=O)N(C)C)C3)[C@H](C)[C@H]12` [MEM, Meropenem], the MIC in experiment [3] and in experiment [4] was 0.5 µg/mL (≈ 1.3 µM) each time.
As for `Cc1ncc([N+](=O)[O-])n1CCO` [MTZ, Metronidazole], the minimal inhibitory concentration (MIC) turned out to be 0.25 µg/mL (≈ 1.46 µM) in experiment [3] and 2 µg/mL (≈ 11.7 µM) in experiment [4].
As for `COc1c(N2C[C@@H]3CCCN[C@@H]3C2)c(F)cc2c(=O)c(C(=O)O)cn(C3CC3)c12` [MXF, Moxifloxacin], the MIC in experiment [3] was over 32 µg/mL; in experiment [4], 8 µg/mL (≈ 19.9 µM).
Turning to `CO[C@H]1O[C@H](CO)[C@@H](O)[C@H](O)[C@H]1O` [Methyl-α D-glucopyranoside], the “growth … ATCC BAA-835” value in experiment [1] is “−”. Further, the “growth … EB-AMDK27” value in experiment [2] was “−”.
As for `CO[C@H]1O[C@H](CO)[C@@H](O)[C@H](O)[C@@H]1O` [Methyl-α D-mannopyranoside], the “growth … ATCC BAA-835” value in experiment [1] is reported as “−”. In addition, the “growth … EB-AMDK27” value in experiment [2] is recorded as “−”.
Turning to `O=C([O-])C(=O)C(O)C(O)C(O)CO.[K+]` (centres unmarked) [Potassium 2-Ketogluconate], the “growth … ATCC BAA-835” value in experiment [1] is recorded as “−”. The “growth … EB-AMDK27” value in experiment [2] is on record as “−”.
With `OCc1ccccc1O[C@@H]1O[C@H](CO)[C@@H](O)[C@H](O)[C@H]1O` [Salicine], the “growth … ATCC BAA-835” value in experiment [1] is given as “−”. For the same compound, the “growth … EB-AMDK27” value in experiment [2] is “−”.
In the case of `CO[C@H]1OC[C@@H](O)[C@H](O)[C@H]1O` [α-Methyl-xyloside], the “growth … ATCC BAA-835” value in experiment [1] is on record as “−”. Moreover, in experiment [2], the “growth … EB-AMDK27” value is recorded as “−”.
Consider Amidon [Amidon (starch)], for which the “growth … ATCC BAA-835” value in experiment [1] is recorded as “−”. Moreover, in experiment [2], the “growth … EB-AMDK27” value was “−”.
Consider D-Turanose, for which, in experiment [1], the “growth … ATCC BAA-835” value was “−”. Also, in experiment [2], the “growth … EB-AMDK27” value is “−”.
Turning to Glycogene, the “growth … ATCC BAA-835” value in experiment [1] is listed as “−”. In addition, the “growth … EB-AMDK27” value in experiment [2] is given as “−”.
In the case of Piperacillin-Tazobactam [PTZ], the “MIC, QC ATCC 29741” value in experiment [4] (broth microdilution) is 8/4.

The values above are taken from US11439670B2, “Akkermansia muciniphila EB-AMDK27 strain and use thereof” (ENTEROBIOME INC., priority 2019, dated 2022).
